Experiment [1] deals with B16.SIY tumors. It counts as in vivo. As for the experimental part:
As a comparison, the cyclic dinucleotide compounds from Aduro will be injected into tumors in parallel sets of mice. Tumor volumes are estimated twice a week using the formula described above.
(§1) In vivo tumor experiments. 10^6 of B16-SIY tumor cells, 5×10^4 B16.F10 tumor cells, 10^5 4T1 and CT26, or 10^6 other tumor cells were injected s.c. in 100 μl DPBS or HBSS on the right flank of mice. Following tumor implantation, mice were randomized into treatment groups. […] Measurements of tumors were performed twice per week using calipers, and the tumor volume was calculated with the formula: V=(length×width^2)/2. In some experiments, tumor-free survivors were rechallenged with tumor cells on the opposite flank several weeks after the injection of the primary tumor. Naïve mice were used as controls. For the contralateral experiments, mice were implanted on both flanks and only one tumor was treated. For the B16 melanoma lung metastasis experiments, mice were implanted on the flank with 5×10^4 cells B16.F10 on day 0, and then injected intravenously with 1×10^5 cells on day 7. Lungs were harvested on day 28. Administration of compounds, measurements of tumors and counting of lung tumors were performed in a blinded fashion.

Experiment [2] deals with five hSTING alleles (WT, REF, HAQ, AQ and Q). The experiment can be described thus: IFN-β luciferase reporter assay in HEK 293T cells expressing hSTING variants. It counts as cell-based, human. The following applies: 100 μg/ml DMXAA, 6 hours. The procedure: Luciferase Assay. […] After 20 min, stimulation mixtures were removed and normal media was added. After a total of 6 hours, cell lysates were prepared and reporter gene activity measured using the Dual Luciferase Assay System (Promega) on a Spectramax M3 luminometer.
A general note: A reporter such as luciferase makes a cellular process visible.

Experiment [3] concerns Ag104L tumors. The experiment can be described thus: Intratumoral treatment of Ag104L tumors. It counts as in vivo, mouse. As to conditions: C3H mice, single IT dose of 500 μg DMXAA. As for the experimental part:
as §1

In experiment [4] the test system is tumors. The following applies: background statement; cited from earlier work.
The subject of experiment [5] is SIY antigen. The experiment can be described thus: IFN-γ ELISPOT and SIY-pentamer staining in B16.SIY tumor-bearing mice. It counts as in vivo, mouse. The procedure:
The mouse IFN-γ enzyme-linked Immunospot assay (ELISPOT) from BD is used according to the manufacturer's protocol. In brief, splenocytes are plated at 10^6 cells/well and stimulated overnight with SIY peptide (160 nM), PMA (50 ng/ml) and ionomycin (0.5 μM) as positive control, or medium (DMEM supplemented with 10% heat-inactivated FCS, penicillin, streptomycin, L-arginine, L-glutamine, folic acid, and L-asparagine) as negative control. IFN-γ spots are detected using biotinylated antibody and avidin-peroxidase and developed using AEC substrate (BD Bioscience). Plates are read in an Immunospot Series 3 Analyzer and analyzed with ImmunoSpot software (Cellular Technology Ltd).
5×10^6 cells/sample are labeled with PE-MHC class I tetramers (Beckman Coulter or Proimmune) consisting of murine H-2Kb complexed to either […] (SIY) peptide or […] (OVA) peptide as a negative control, anti-TCRβ-AF700 (clone H57-597), antiCD8-PO (clone 5H10), anti-CD4-PB (clone RM4-5), anti CD62L-PE_Cy7 (clone MEL-14), anti-CD44-APC (clone IM7) and the Fixable Viability dye eFluor780 (eBioScience). FACS analysis is performed using FACSCanto or LSR II cytometers with FACSDiva software (BD). Data analysis is conducted with FlowJo software (Tree Star).
IFN-γ ELISPOT and SIY-pentamer staining. […] For the ELISPOTs, 10^6 splenocytes were plated per well and stimulated overnight with SIY peptide (160 nM) or AH1 (1 μM) peptide, with PMA (50 ng/ml) plus ionomycin (0.5 μM) as a positive control, or medium as negative control. Spots were developed using the BD mouse IFN-γ kit according to the manufacturer's instructions and the number of spots was measured using an Immunospot Series 3 Analyzer and analyzed using ImmunoSpot software (Cellular Technology Ltd). For SIY-pentamer staining, splenocytes were preincubated for 15 min with anti-CD16/32 monoclonal antibody (93) to block potential nonspecific binding, and labeled with PE-MHC class I pentamer (Proimmune) consisting of murine H-2K^b complexed to […] (SIY) peptide, anti-TCRβ-AF700 (H57-597), anti-CD8-Pacific Blue (53-6.7), anti-CD4-Pacific Orange (RM4-5) (all antibodies from BioLegend) and the Fixable Viability Dye eFluor 450 (eBioscience). Stained cells were analyzed using LSR II cytometer with FACSDiva software (BD). Data analysis was conducted with FlowJo software (Tree Star).

Experiment [6] has as its system STING pathway (TBK1, IRF3 phosphorylation). Put plainly: Western blot of pTBK1 and pIRF3 in macrophages and BM-DCs after STING agonist. It counts as cell-based, mouse. As for the experimental part: DMXAA for the same time-points. Proteins were extracted with Triton-X buffer (150 mM sodium chloride, 50 mM Tris, 1% Triton-X, pH 8.0) with proteinase inhibitors (Thermo scientific) and phosphatase inhibitors (Sigma). 30 μg of protein was electrophoresed in 10% SDS-PAGE gels and transferred onto Immobilon-FL membranes (Millipore). Blots were incubated with antibodies specific for phosphorylated TBK1 (Ser172), phosphorylated IRF3 (Ser396), total TBK1, STING and GAPDH (Cell Signaling) or total IRF3 (Invitrogen). Proteins from HEK 293T lines stably expressing STING were extracted with M-PER (Thermo Scientific). 6 μg of protein was loaded onto a 4-12% MES NuPAGE gel (Life Technologies), transferred to nitrocellulose, and probed with anti-HA antibody (Santa Cruz). Anti-rabbit IRDye 680RD label secondary antibody was used for visualization of bands with the Odyssey Imaging system (LI-COR).
Background: Immunoblotting shows a protein as a band on a membrane.

Experiment [7] concerns 4T-1 tumors. Put plainly: Intratumoral treatment of 4T-1 tumors. It counts as in vivo, mouse. The following applies: BALB/c mice, single IT dose of 500 μg DMXAA. The procedure:
as §1

Experiment [8] relates to B16.F10 tumors. The experiment can be described thus: Intratumoral treatment of established B16.F10 tumors. The following applies: C57BL/6 mice, single IT dose of 500 μg DMXAA. It counts as in vivo, mouse. As for the experimental part:
as §1

The test system of experiment [9] is tumors. The following applies: background statement; cited from earlier work. This is another data set of the same source.
Experiment [10] has as its system TRAMP-C2 tumors. Put plainly: Intratumoral treatment of TRAMP-C2 tumors. As to conditions: C57BL/6 mice, single IT dose of 500 μg DMXAA. It counts as in vivo, mouse. As for the experimental part:
as §1

Experiment [11] relates to IFN-β. Put plainly: Murine IFN-β ELISA, macrophages and BM-DCs. It counts as cell-based, mouse. The procedure:
Murine IFN-β ELISA. […] Conditioned media were collected after 4 hours. IFN-β concentration was assessed using VeriKine™ Mouse Interferon Beta ELISA Kit (PBL interferon source).
(In general: In an ELISA, binding on a coated surface is turned into a signal by an enzyme label.)

“Also recorded” adds a separate entry of the source.

On to `Cc1ccc2c(=O)c3cccc(CC(=O)O)c3oc2c1C` [DMXAA, 5,6-dimethylXAA (xanthenone-4-acetic acid)], for which the “mice that reject the tumors” value in experiment [1] (WT B6 mice, tumors 100-200 mm3, single intratumoral dose) is 80-90%. Moreover, the “tumor regression and rejection” value in experiment [1] (WT mice, single IT dose of 500 μg at day 7) is “potent tumor regression in all animals and complete tumor rejection in the majority of mice”. In addition, in [1] (tumors in both flanks, only one treated IT), the “regression of injected and non-injected secondary tumor” value is given as “Tumor regression was observed in both sites”. Further, the IFN-β reporter activation result in experiment [2] is on record as “failed to activate”. The tumor growth entry in experiment [3], in experiment [7], in experiment [8] and in [10] was “significantly reduced the growth” in each case. The “outcome of clinical trials for the treatment of tumors” value in experiment [4] is given as “all failed”. In addition, the “frequencies of SIY-specific T cells” value in experiment [5] (STING^−/− mice) is “markedly reduced”. For the same molecule, the “SIY-specific CD8+ T cells by SIY pentamer staining” value in experiment [5] (WT mice, spleens (b243 also tumors), after IT DMXAA) is “higher amount of CD8+ SIY specific T cells; also recorded: high frequency of SIY-specific CD8^+ T cells”. Moreover, the “endogenous T cell response against SIY (ELISPOT and CD8 SIY positive cells in spleen and tumors)” value in experiment [5] (one week after injection) is reported as “highly increased”. Further, the “increase in number of specific T cells producing IFN-g upon stimulation with SIY (ELISPOT)” value in experiment [5] (one week after injection, versus saline) turned out to be 10 fold. In addition, in experiment [5] (splenocytes 5 days after treatment, 500 μg IT, WT mice), the “frequency of SIY-specific IFN-γ-producing T cells (ELISPOT)” value was “marked increase”. The “activation of the STING pathway (pTBK1, pIRF3)” value in experiment [6] (BM-DC from WT or STING ko mice) is on record as “same potent activation of the pathway”. For the same molecule, the “phosphorylation of TBK1 and IRF3” value in [6] (STING deficient macrophages, DMXAA 50 μg/ml) was “not in STING deficient cells; also recorded: abolished”; in experiment [6] (STING^−/− macrophages reconstituted with mSTING-HA, DMXAA) it was “restored phosphorylation of TBK1 and IRF3”; in experiment [6] (WT macrophages, DMXAA 50 μg/ml or ML RR-S2 CDA 50 μM), “rapid and potent phosphorilation of TBK1 and IRF3; also recorded: phosphorylation of TBK1 and IRF3 was observed”. Further, in [9], the antitumor effect result was “induced haemorrhagic necrosis and tumour regression”. The IFN-β production entry was “a high production of IFN-β” in [11] (BM-DC from WT versus STING^−/− mice, DMXAA); “only in WT macrophages; also recorded: not from STING^−/− macrophages” in experiment [11] (STING^−/− macrophages, DMXAA 50 μg/ml); “high production of IFN-β; also recorded: IFN-β secretion was detected” in experiment [11] (WT macrophages, DMXAA 50 μg/ml).

(Values after patent US20180028553A1, “USE OF STING AGONIST AS CANCER TREATMENT” (The University of Chicago, priority 2013, published 2018).)
